Measurements reported in US6573041B2, “Neuronal cell model and methods of use thereof” (priority 2000, dated 2003).

Test system: HSV-2 strain 333 quiescently infected ND-PC12 (QIF-PC12) cell cultures
Assay: Induction of HSV-2 from QIF-PC12 cell cultures; virus production by direct plaque assay of supernatants on Vero cells
Format: cell-based
Conditions: for cultures activating virus in response to forskolin: Vero cocultivation day 12 p.i.
Method: For morphologic differentiation, PC12 cells were maintained in RPMI 1640 supplemented 0.1% bovine serum albumin, fraction V (BSA) and 50 ng/ml of 2.5S mouse nerve growth nerve factor (NGF) (Becton Dickinson) (maintenance media) throughout the studies, unless indicated, beginning on the day of plating. PC12 were plated, following two rinses with RPMI 1640 containing 0.1% BSA and dissociation by passage through a 22-gauge needle, in 12-well tissue culture dishes (Bector Dickinson Labware, Franklin Lakes, N.J., USA) coated with rat tail collagen type 1 (Bector Dickinson) at 1.1×10^5 cells/well in maintenance media. Collagen was applied as recommended by the supplier. Following 4 days of differentiation in maintenance media, cultures were maintained in RPMI 1640 supplemented with 10% horse serum (heat-inactivated) and 5% FBS, and 50 ng/ml NGF for 2 days. The following day cultures received maintenance media supplemented with 100 μM acycloguanosine (ACV) when indicated, purchased from Sigma (St. Louis, Mo., USA). Morphologic differentiation was confirmed by microscopic visualization of dendritic processes. Media was changed every 2 to 3 days unless indicated.
ND-PC12 cells were infected in a volume of 0.4 ml/well in 12-well plates without agitation at the indicated multiplicity of infection (MOI) overnight at 37° C. When used, ACV was maintained in the medium from 1 day prior to infection 8 days post-infection (p.i.). After ACV withdrawal, a quiescent state (i.e., free of detectable infectious virus in culture supernatants) was maintained for at least 7 days prior to induction. At the indicated times, Vero cells were trypsinized, washed twice with RPMI and introduced into the QIF-PC12 cell cultures at a ratio of 1:1 in maintenance media.
HSV QIF-PC12 cells, that were free of detectable infectious virus, were subjected to heat stress (43° C. for 3 h in an incubator), or maintenance media supplemented with or without 50 μM forskolin (Sigma) as previously described (Danaher et al, 1999a,b). Virus production was determined using 25% volume of supernatants from infected PC12 cultures in a direct plaque assay (DPA) on monolayers of Vero cells as previously described (Miller and Smith, 1991). Cultures were subsequently replenished with fresh maintenance media.
Based on these findings, forskolin and HS induced HSV-2 reactivation from QIF-PC12 cell cultures that were cocultivated with Vero cells was analyzed in more detail. QIF-PC12 cell cultures were established with strain 333 at MOI of 10 as described in the Materials and methods using transient ACV treatment. Cultures were cocultivated with Vero cells at a ratio of 1:1 three days before induction with forskolin or HS (day 15 p.i.). Virus production was monitored from day 10 through 23 p.i. Prior to induction, HSV-2 was detected infrequently (2.8%; 1/36) in cocultivated cultures. The 35 cultures that were not shedding virus were used in induction assays. Following induction treatment (FIG. 1), virus was detected in 90 to 100% of HS and forskolin induced cocultivated cultures, and 8.3% (1/12) of mock-induced cocultivated cultures.
To assess this, QIF-PC12 cell cultures were established with HSV-2 as described above. Cultures were cocultivated with Vero cells at a ratio of 1:1 within 10 days of AC withdrawal. Induction was performed with forskolin on day 30 p.i. Cultures were monitored for virus production using culture supernatants. Over the 3 week period between ACV withdrawal and induction, 71% (17/24) of the HSV-2 infected culture maintained quiescence. HSV-2 was produced from 100% (8/8) of forskolin induced cultures and 0% (0/9) of mock induced cultures by 8 days post-induction (data not shown).
Next, it was determined whether the efficiency of HSV-2 activation from quiescence was MOI-dependent. QIF-PC12 cell cultures were established with HSV-2 strain 333 at MOIs of 3 and 30 and cocultivated with Vero cells at a ratio of 1:1 on day 12 p.i. as above. […]

`C=C[C@@]1(C)CC(=O)[C@]2(O)[C@@]3(C)[C@@H](O)CCC(C)(C)[C@@H]3[C@H](O)[C@H](OC(C)=O)[C@@]2(C)O1` [forskolin] was tested, and the “cultures activating virus in response to forskolin” value (50 μM forskolin day 15 p.i., MOI of 3, established with ACV, 9/11 by day 7) was 82%, the “cultures activating virus in response to forskolin” value (50 μM forskolin day 15 p.i., MOI of 30, established with ACV, 12/12 by day 6) was 100% and the “cultures producing HSV-2 after forskolin induction” value (established without ACV, MOI of 3, 50 μM forskolin day 15 p.i., by day 6 post-induction, 10/11 cultures) was 91%. For the same compound, the “cultures from which virus was recovered after forskolin induction” value (established without ACV, MOI of 3, previously mock induced non-productive cultures, forskolin induced on day 30 p.i., 4/4 cultures) was 100%, the “forskolin induced reactivation (cultures)” value (established without ACV, MOI of 30, 50 μM forskolin day 15 p.i., 9/10 cultures) was 90% and the “cultures producing HSV-2 after forskolin induction” value (forskolin on day 30 p.i., established with ACV, Vero cocultivation, by 8 days post-induction, 8/8 cultures) was 100%.
